Like-named read-outs stand apart in the source and are kept apart here. Where a SMILES comes first, the peptide text is derived from it.
Columns and labels:
Type in all cases: cell-based
[1] = test system: Staphylococcus aureus clinical isolate – animal, methicillin-resistant (MRSA)
Method in brief: (§1)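 Endpoint is visible-growth inhibition (MIC) after 35°C, 20–24 h incubation. Yeast medium was RPMI-1640 MOPS; bacterial medium was Mueller Hinton broth, with or without divalent cations and lysed horse blood. Final peptide range 64-0.125μg/mL.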

[2] = test system: Staphylococcus aureus clinical isolate – animal, penicillin-resistant (PRSA)
Method in brief: as §1

[3] = test system: Escherichia coli clinical isolate - animal; assay: microbe, parasite or virus in culture
Method in brief: (§2)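 Each isolate was exposed to twofold peptide dilutions (final 64-0.125μg/mL) in Mueller Hinton broth, optionally supplemented with calcium and magnesium or 10% lysed horse blood. The MIC was taken as the lowest concentration lacking visible growth after 20–24 hours at 35°C.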

[4] = test system: Staphylococcus aureus ATCC 29213; assay: microbe, parasite or virus in culture
Method in brief: as §2

[5] = test system: Pseudomonas aeruginosa clinical isolate - animal; assay: microbe, parasite or virus in culture
Method in brief: as §2

[6] = test system: Staphylococcus aureus clinical isolate - animal; assay: microbe, parasite or virus in culture
Method in brief: as §2

[7] = test system: Pseudomonas aeruginosa ATCC 27853; assay: microbe, parasite or virus in culture
Method in brief: as §2

[8] = test system: Escherichia coli ATCC 25922; assay: microbe, parasite or virus in culture
Method in brief: as §2

[9] = test system: Candida parapsilosis ATCC 22019; assay: microbe, parasite or virus in culture; conditions: for MIC: read-out: MIC C. parapsilosis ATCC
Method in brief: as §1

Candida krusei ATCC 6258 = assay: microbe, parasite or virus in culture
Method in brief: as §1

[10] = test system: Streptococcus agalactiae ATCC 12386; assay: microbe, parasite or virus in culture
Method in brief: as §1

[11] = test system: Streptococcus pneumoniae ATCC 49619; assay: microbe, parasite or virus in culture
Method in brief: as §1

[12] = test system: Streptococcus agalactiae Clinical isolate - animal; assay: microbe, parasite or virus in culture
Method in brief: as §1

[13] = test system: Candida albicans Clinical isolate - human; assay: microbe, parasite or virus in culture
Method in brief: as §1

[14] = clinical isolate – animal, methicillin-resistant
[15] = clinical isolate – animal, penicillin-resistant (PRSA)
[16] = value in brackets, µM equivalent of Table 3
[17] = clinical isolate, superscript value, cation-adjusted Mueller Hinton broth, µM equivalent
[18] = clinical isolate, value in brackets, µM equivalent of Table 3
[19] = clinical isolate, µM equivalent of Table 3
[20] = value in brackets, µM version of Table 4

CC[C@H](C)[C@H](NC(=O)[C@H](CCCNC(=N)N)NC(=O)CNC(=O)[C@H](CCCNC(=N)N)NC(=O)[C@@H](N)CCCCN)C(=O)N[C@@H](Cc1ccccc1)C(=O)N[C@@H](CCCNC(=N)N)C(=O)N[C@@H](CCCCN)C(=O)N[C@@H](Cc1ccccc1)C(=O)N[C@@H](CCCCN)C(=O)N[C@@H](CCCCN)C(=O)N[C@@H](CC(C)C)C(=O)N[C@@H](CC(C)C)C(=O)N[C@@H](CCCCN)C(=O)N[C@@H](CCCCN)C(=O)N[C@@H](CC(C)C)C(=O)NCC(=O)N[C@@H](CC(=O)O)C(=O)N[C@@H](CCCCN)C(=O)N[C@H](C(=O)N[C@@H](CCCCN)C(=O)N[C@@H](CC(N)=O)C(=O)N[C@H](C(=O)N[C@@H](CC(C)C)C(=O)N[C@@H](CCCCN)C(=O)N[C@@H](CC(N)=O)C(=O)N[C@@H](C)C(=O)N[C@@H](CCCNC(=N)N)C(=O)N[C@@H](CC(N)=O)C(=O)NCC(=O)N[C@@H](Cc1ccccc1)C(=O)N[C@@H](CC(C)C)C(=O)NCC(=O)N1CCC[C@H]1C(=O)N[C@H](C(=O)NCC(=O)N[C@@H](CCCNC(=N)N)C(=O)O)[C@@H](C)CC)[C@@H](C)O)[C@@H](C)CC [MAP8] (H-KRGRIFRKFKKLLKKLGDKIKNTLKNARNGFLGPIGR-OH)
14.8 µM: MIC MRSA [1, 14] | MBC S. agalactiae ATCC ([10]; ATCC 12386) | MIC S. agalactiae ATCC ([10]; ATCC 12386)
>64 µg/mL: MIC C. albicans ([13]; Clinical isolate - human)
> 64 µg/mL: MFC C. krusei ATCC (Candida krusei ATCC 6258; ATCC 6258)
3.7 µM: MIC PRSA [2, 15] | MBC E. coli ([3]; clinical isolate - animal) | MIC ([3]; clinical isolate - animal) | MIC ([5]; clinical isolate - animal, read-out: MIC P. aeruginosa) | MIC ([5]; clinical isolate - animal, read-out: MIC in the presence of cations P. aeruginosa) | MIC ([8]; ATCC 25922, read-out: MIC E. coli ATCC) | MIC ([8]; ATCC 25922, read-out: MIC in the presence of cations E. coli ATCC)
> 14.8 µM: MBC MRSA [1, 14]
7.4 (7.4)^7.4 µM: MBC S. aureus ATCC ([4]; ATCC 29213) | MIC S. aureus ATCC ([4]; ATCC 29213) | MIC in the presence of cations S. aureus ATCC ([4]; ATCC 29213) | MBC S. aureus ([6]; clinical isolate - animal) | MIC S. aureus ([6]; clinical isolate - animal) | MIC in the presence of cations S. aureus ([6]; clinical isolate - animal)
3.7 (3.7)^3.7 µM: MBC P. aeruginosa ATCC ([7]; ATCC 27853) | MIC P. aeruginosa ATCC ([7]; ATCC 27853) | MIC in the presence of cations P. aeruginosa ATCC ([7]; ATCC 27853)
7.4 µM: MBC PRSA [2, 15] | MBC P. aeruginosa ([5]; clinical isolate - animal) | MBC E. coli ATCC ([8]; ATCC 25922) | MIC ([9]; ATCC 22019) | MBC S. pneumoniae ATCC ([11]; ATCC 49619) | MIC S. pneumoniae ATCC ([11]; ATCC 49619) | MBC S. agalactiae ([12]; clinical isolate - animal) | MIC S. agalactiae ([12]; clinical isolate - animal)
1.8 µM: MIC in the presence of cations E. coli ([3]; clinical isolate - animal)

CC[C@H](C)[C@H](NC(=O)[C@H](CCCCN)NC(=O)[C@H](Cc1ccccc1)NC(=O)[C@H](CC(N)=O)NC(=O)[C@H](CCCCN)NC(=O)[C@H](CC(C)C)NC(=O)[C@H](CCCNC(=N)N)NC(=O)[C@H](CCCCN)NC(=O)[C@H](CCCCN)NC(=O)[C@@H](NC(=O)[C@H](CO)NC(=O)[C@H](CC(=O)O)NC(=O)CNC(=O)[C@H](Cc1ccccc1)NC(=O)[C@H](CCCCN)NC(=O)[C@H](CCCCN)NC(=O)[C@H](CC(C)C)NC(=O)[C@H](CCCCN)NC(=O)[C@H](CCCCN)NC(=O)[C@H](CCCCN)NC(=O)[C@H](CC(C)C)NC(=O)[C@H](CO)NC(=O)[C@H](CCCCN)NC(=O)[C@H](Cc1c[nH]c2ccccc12)NC(=O)[C@H](CC(C)C)NC(=O)CNC(=O)[C@H](CCCNC(=N)N)NC(=O)[C@@H](N)CCCCN)[C@@H](C)CC)C(=O)NCC(=O)N[C@@H](Cc1ccccc1)C(=O)N1CCC[C@H]1C(=O)N[C@H](C(=O)N1CCC[C@H]1C(=O)N[C@@H](CC(C)C)C(=O)O)[C@@H](C)CC [MAP14] (H-KRGLWKSLKKKLKKFGDSIKKRLKNFKIGFPIPL-OH)
> 15.8 µM: MFC C. krusei ATCC (Candida krusei ATCC 6258; [20])
4 µg/mL: MIC in the presence of cations E. coli ([3]; clinical isolate, superscript value, cation-adjusted Mueller Hinton broth)
3.9 (3.9)^3.9 µM: MBC P. aeruginosa [5, 18] | MIC P. aeruginosa [5, 19]
15.8 µM: MBC MRSA [1, 16] | MIC MRSA ([1]; µM equivalent of Table 3) | MIC C. krusei ATCC (Candida krusei ATCC 6258; µM version of Table 4) | MBC S. agalactiae ATCC [10, 16] | MIC S. agalactiae ATCC ([10]; µM equivalent of Table 3)
7.9 (7.9)^7.9 µM: MIC in the presence of cations S. aureus ATCC ([4]; superscript value, cation-adjusted Mueller Hinton broth, µM equivalent of Table 3) | MBC S. aureus ATCC [4, 16] | MIC S. aureus ATCC ([4]; µM equivalent of Table 3) | MIC in the presence of cations S. aureus [6, 17] | MBC S. aureus [6, 18] | MIC S. aureus [6, 19]
1.9 µM: MBC E. coli [3, 18] | MIC [3, 19] | MIC ([7]; superscript value, cation-adjusted Mueller Hinton broth, µM equivalent, read-out: MIC in the presence of cations P. aeruginosa ATCC)
0.9 µM: MIC in the presence of cations E. coli [3, 17]
>15.8 µM: MIC ([13]; clinical isolate, µM version of Table 4, read-out: MIC C. albicans)
7.9 µM: MFC C. parapsilosis ATCC [9, 20] | MBC S. pneumoniae ATCC [11, 16] | MIC S. pneumoniae ATCC ([11]; µM equivalent of Table 3) | MBC S. agalactiae [12, 18] | MIC S. agalactiae [12, 19]
1.9 (1.9)^1.9 µM: MIC in the presence of cations E. coli ATCC ([8]; superscript value, cation-adjusted Mueller Hinton broth, µM equivalent) | MBC E. coli ATCC [8, 16] | MIC E. coli ATCC ([8]; µM equivalent of Table 3)
3.9 µM: MBC PRSA [2, 16] | MIC PRSA ([2]; µM equivalent of Table 3) | MBC P. aeruginosa ATCC [7, 16] | MIC ([7]; µM equivalent of Table 3, read-out: MIC P. aeruginosa ATCC) | MIC ([9]; µM version of Table 4)
